According to the supplement of paper PMC10307832:

Tests used:
Experiment in all cases: relative viability (nuclei count vs DMSO), 5 days (fraction); higher = more cells survive
[1] = compound: CN1CCC(CNc2ccc3ncc(-c4cccc(OC(F)(F)F)c4)n3n2)CC1 [SGI-1776] + CC(=O)Nc1cccc(-n2c(=O)n(C3CC3)c(=O)c3c(Nc4ccc(I)cc4F)n(C)c(=O)c(C)c32)c1 [Trametinib] (partner 0.02 µM)
How it was run: (§1)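 Nuclei were stained with Hoechst during a one-step fixation (final 0.05% Triton X-100, 1% formaldehyde, 1 ug/ml Hoechst) carried out 5 days after dosing, then counted on 4× images. The cells, lung cancer lines in 1536-well plates, had been dosed by pin tool the day after seeding with one drug alone or a fixed anchor-drug dose plus five library-drug doses (not always all listed) in √10 steps. Relative viability is the nuclei count in treated wells divided by that in vehicle wells, and each value is the median of duplicate plates.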

[2] = compound: CN1CCC(CNc2ccc3ncc(-c4cccc(OC(F)(F)F)c4)n3n2)CC1 [SGI-1776] + Cc1nc(Nc2ncc(C(=O)Nc3c(C)cccc3Cl)s2)cc(N2CCN(CCO)CC2)n1 [Dasatinib] (partner 0.075 µM)
How it was run: as §1

[3] = compound: C1COCCN1C2=NC(=NC3=C2OC4=C3C=CC=N4)C5=CC(=CC=C5)NC(=O)C6=CN=C(C=C6)N + CS(=O)(=O)CCNCc1ccc(-c2ccc3ncnc(Nc4ccc(OCc5cccc(F)c5)c(Cl)c4)c3c2)o1 [Lapatinib] (partner 2 µM)
How it was run: as §1

[4] = compound: CN1CCC(CNc2ccc3ncc(-c4cccc(OC(F)(F)F)c4)n3n2)CC1 [SGI-1776] + CS(=O)(=O)CCNCc1ccc(-c2ccc3ncnc(Nc4ccc(OCc5cccc(F)c5)c(Cl)c4)c3c2)o1 [Lapatinib] (partner 2 µM)
How it was run: as §1

With NCI-H322M the relative viability ([1]; first compound 0.08 µM) was 0.524, the relative viability ([1]; first compound 0.8 µM) was 0.506 and the relative viability ([1]; first compound 2.53 µM) was 0.485. It also gave a relative viability ([1]; first compound 8 µM) of 0.487, a relative viability ([2]; first compound 0.08 µM) of 0.27 and a relative viability ([2]; first compound 0.8 µM) of 0.252. The relative viability ([2]; first compound 2.53 µM) was 0.208, the relative viability ([2]; first compound 8 µM) was 0.252 and the relative viability ([3]; first compound 0.02 µM) was 0.553. It also gave a relative viability ([3]; first compound 0.06325 µM) of 0.574, a relative viability ([3]; first compound 0.2 µM) of 0.506 and a relative viability ([3]; first compound 0.6325 µM) of 0.604. It also gave a relative viability ([3]; first compound 2 µM) of 0.45, a relative viability ([4]; first compound 0.08 µM) of 0.56 and a relative viability ([4]; first compound 0.8 µM) of 0.603. For the same cell line, the relative viability ([4]; first compound 2.53 µM) was 0.539 and the relative viability ([4]; first compound 8 µM) was 0.569.

Work on PC-3 [JPC-3] yielded a relative viability ([1]; first compound 0.08 µM) of 0.757, a relative viability ([1]; first compound 0.8 µM) of 0.73 and a relative viability ([1]; first compound 2.53 µM) of 0.656. It also gave a relative viability ([1]; first compound 8 µM) of 0.462, a relative viability ([2]; first compound 0.08 µM) of 1.1 and a relative viability ([2]; first compound 0.8 µM) of 0.961. For the same cell line, the relative viability ([2]; first compound 2.53 µM) was 0.977, the relative viability ([2]; first compound 8 µM) was 0.857 and the relative viability ([3]; first compound 0.02 µM) was 0.444. For the same cell line, the relative viability ([3]; first compound 0.06325 µM) was 0.459, the relative viability ([3]; first compound 0.2 µM) was 0.438 and the relative viability ([3]; first compound 0.6325 µM) was 0.476. The relative viability ([3]; first compound 2 µM) was 0.398, the relative viability ([4]; first compound 0.08 µM) was 0.441 and the relative viability ([4]; first compound 0.8 µM) was 0.466. For the same cell line, the relative viability ([4]; first compound 2.53 µM) was 0.478 and the relative viability ([4]; first compound 8 µM) was 0.371.

EPLC-272H gave a relative viability ([1]; first compound 0.08 µM) of 0.288, a relative viability ([1]; first compound 0.8 µM) of 0.282 and a relative viability ([1]; first compound 2.53 µM) of 0.307. For the same cell line, the relative viability ([1]; first compound 8 µM) was 0.282, the relative viability ([2]; first compound 0.08 µM) was 0.381 and the relative viability ([2]; first compound 0.8 µM) was 0.365. It also gave a relative viability ([2]; first compound 2.53 µM) of 0.264, a relative viability ([2]; first compound 8 µM) of 0.314 and a relative viability ([3]; first compound 0.02 µM) of 0.886. For the same cell line, the relative viability ([3]; first compound 0.06325 µM) was 1.02, the relative viability ([3]; first compound 0.2 µM) was 0.674 and the relative viability ([3]; first compound 0.6325 µM) was 0.825. The relative viability ([3]; first compound 2 µM) was 0.53, the relative viability ([4]; first compound 0.08 µM) was 1.04 and the relative viability ([4]; first compound 0.8 µM) was 0.889. The relative viability ([4]; first compound 2.53 µM) was 1.1 and the relative viability ([4]; first compound 8 µM) was 0.771.

With A-427 the relative viability ([1]; first compound 0.08 µM) was 0.749, the relative viability ([1]; first compound 0.8 µM) was 0.726 and the relative viability ([1]; first compound 2.53 µM) was 0.722. It also gave a relative viability ([1]; first compound 8 µM) of 0.542, a relative viability ([2]; first compound 0.08 µM) of 0.736 and a relative viability ([2]; first compound 0.8 µM) of 0.693. The relative viability ([2]; first compound 2.53 µM) was 0.665, the relative viability ([2]; first compound 8 µM) was 0.499 and the relative viability ([3]; first compound 0.02 µM) was 1.06. The relative viability ([3]; first compound 0.06325 µM) was 1.04, the relative viability ([3]; first compound 0.2 µM) was 0.91 and the relative viability ([3]; first compound 0.6325 µM) was 1.1. For the same cell line, the relative viability ([3]; first compound 2 µM) was 0.677, the relative viability ([4]; first compound 0.08 µM) was 1.05 and the relative viability ([4]; first compound 0.8 µM) was 1.02. It also gave a relative viability ([4]; first compound 2.53 µM) of 1.01 and a relative viability ([4]; first compound 8 µM) of 0.966.
